Reference: article PMC5557808 (Nature Communications, 2017)
Each block holds one molecule with its values, some of them ahead of it. Where a SMILES comes first, the peptide text is derived from it. The star is where a group is joined. X1 = CC[N+](CC)(CC(=O)Nc1c(C)cccc1C)Cc1cccc(C(=O)*)c1

Columns and labels:
[1] = molecular target: T1, Leucine aminopeptidase (AP) (Sus scrofa, UniProt P15145); experiment: Aminopeptidase (AP) incubation; format: biochemical, porcine
T1 construct: Leucine aminopeptidase (AP; Mw = 280 kDa) from porcine kidney; purchased Sigma-Aldrich Chemie, Schnelldorf, Germany; host or cells: porcine kidney (tissue-derived)
T1 sequence (P15145 1-963): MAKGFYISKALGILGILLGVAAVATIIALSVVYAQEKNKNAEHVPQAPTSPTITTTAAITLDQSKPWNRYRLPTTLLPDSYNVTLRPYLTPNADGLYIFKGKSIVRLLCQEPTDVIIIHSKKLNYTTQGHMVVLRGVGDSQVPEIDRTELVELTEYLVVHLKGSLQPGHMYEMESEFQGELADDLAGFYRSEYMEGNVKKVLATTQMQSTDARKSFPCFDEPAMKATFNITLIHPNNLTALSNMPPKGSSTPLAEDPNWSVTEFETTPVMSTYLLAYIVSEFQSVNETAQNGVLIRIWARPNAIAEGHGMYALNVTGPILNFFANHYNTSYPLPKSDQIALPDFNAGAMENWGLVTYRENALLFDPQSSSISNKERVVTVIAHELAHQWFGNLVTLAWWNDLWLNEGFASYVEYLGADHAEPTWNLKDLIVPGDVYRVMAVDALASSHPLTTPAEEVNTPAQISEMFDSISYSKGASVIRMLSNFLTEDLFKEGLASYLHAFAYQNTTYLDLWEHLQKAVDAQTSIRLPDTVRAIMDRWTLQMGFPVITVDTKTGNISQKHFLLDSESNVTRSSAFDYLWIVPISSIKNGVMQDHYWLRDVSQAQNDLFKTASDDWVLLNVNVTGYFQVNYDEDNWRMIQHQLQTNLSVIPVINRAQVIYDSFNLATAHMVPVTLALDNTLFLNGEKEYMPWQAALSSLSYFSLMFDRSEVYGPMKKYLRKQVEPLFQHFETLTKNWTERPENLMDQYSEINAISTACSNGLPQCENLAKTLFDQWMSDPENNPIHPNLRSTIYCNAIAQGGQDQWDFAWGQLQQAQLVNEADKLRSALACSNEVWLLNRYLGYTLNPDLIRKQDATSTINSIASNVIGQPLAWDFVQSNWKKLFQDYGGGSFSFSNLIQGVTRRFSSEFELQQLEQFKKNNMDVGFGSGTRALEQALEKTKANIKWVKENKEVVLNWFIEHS
Method: Leucine aminopeptidase (AP; Mw = 280 kDa) from porcine kidney dissolved in AP buffer (50 mM Tris-HCl, 1 mM CaCl2, and 150 mM NaCl at pH 7.0) was used. L-leucine-p-nitroanilide (0.125 mg/mL) was used as control substrate. For AP digestion, 1 mg of purified lyophilized peptide was diluted in 2 mL AP buffer resulting in a final concentration of 0.5 mg/mL substrate. To evaluate the impact of AP concentration on peptide cleavage, AP was added at concentrations of 0 (negative control), 0.87, 8.7, 39, and 78 µg/mL and the samples were incubated at 37 °C for 1 h. For analysis of the AP incubation time, an AP concentration of 0.87 µg/mL was used and analyzed after 10, 20 min and 1, 2, 3, and 6 h. To stop the enzyme activity, samples were kept at 95 °C for 15 min. Afterwards, HPLC analyses were performed (as described in the Supplementary Information) to analyze the relative decrease of the main peak as compared to the negative control. Further details are given in the Supplementary Methods.
MMP -9) in a concentration of 0.4 ng/µL (50 µL) were mixed with MMP -8 buffer (37 µL), detection enz yme (5 µL) and substrate (8µL; all fro m Q uic kZ yme® ). The acti vi t y was meas ur ed for 12 hours in inter vals of 10 minutes. […]
Aminopeptidase (AP) incubation
Leucine A minopeptidase (AP; M w = 280 kD a) from porcine kidney dissolved in AP buffer (50 mM Tris-HCl, 1 mM CaCl2 and 150 mM NaCl at pH 7.0) was used. L-leu cin e-p-nitroan ilide (0.125mg/ mL) was used as control substr at e. […] Fo r anal ysis of the impact of AP incubation time, the identical conditions were used (AP concentration of 0.87 µg / mL (and analyzed after 10, 20 minutes and 1, 2, 3 and 6 hours ). To stop the enzymatic activit y, sa mp les wer e kept at 95 °C for 15 minutes. A fterwards, H PLC analys es were p erformed (as descr ibed) to an al yze th e relative d ecr eas e of the ma i n pea k as co mp ared to the negative control (see […]
V(B)/(V(A)+V(B)) = 5 % to 90 % over 10 min, V(B)/(V(A)+V(B)) = 90 % for 5 min, V(B)/(V(A)+V(B)) = 90 % to 5 % over 3 min. […] UV detection was measured at 254 nm. […]

[2] = tested on: MMP-8, then leucine aminopeptidase (AP); experiment: MMP-8 for 22 h, followed by exposure to AP in AP buffer; conditions: porcine kidney (AP), 37 °C, up to 22 h MMP + 30 minutes AP
MMP-8 [3] = experiment: MMP-8 buffer (200 mM NaCl, 50 mM Tris-HCl, 5 mM CaCl2, 1 µM ZnCl2, 0.05% Brij 35 at pH 6.8–7.0); conditions: human, 37 °C, up to 6 hours
MMP-8 [4] = experiment: MMP-8 in MMP-8 buffer; conditions: human, 37 °C, up to 22 h
MMP-8 [5] = experiment: MMP-8; conditions: human, up to 12 h
MMP-8 [6] = molecular target: T2, MMP-8 (Homo sapiens, UniProt P22894); experiment: MMP-8 cleavage of soluble PCL conjugates (HPLC decrease of main peak); format: biochemical; conditions: up to 12 h; control PCLs; MMP-8 buffer pH 6.8-7.0, 37 °C
T2 construct: purchased EMD Millipore Corporation (Billerica, MA)
T2 sequence (P22894 101-467): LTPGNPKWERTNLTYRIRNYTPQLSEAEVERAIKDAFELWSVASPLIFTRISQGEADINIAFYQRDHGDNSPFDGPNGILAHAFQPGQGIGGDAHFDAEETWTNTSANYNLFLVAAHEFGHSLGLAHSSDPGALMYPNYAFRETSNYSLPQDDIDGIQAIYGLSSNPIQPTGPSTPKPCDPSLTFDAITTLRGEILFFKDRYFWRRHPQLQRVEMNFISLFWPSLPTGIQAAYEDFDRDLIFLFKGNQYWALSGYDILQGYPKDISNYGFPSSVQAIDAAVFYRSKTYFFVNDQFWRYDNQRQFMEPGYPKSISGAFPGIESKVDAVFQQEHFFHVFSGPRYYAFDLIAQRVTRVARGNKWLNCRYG
Method: Pro-MMPs (e.g., MMP-8, MMP-1, or MMP-9; used at 0.1 mg/mL and >100.0 mU/mg based on the manufacturer’s information) were activated with p-aminophenylmercuric acetate (APMA) (8). For that, a 10 mM stock solution of APMA was freshly prepared in 0.1 M NaOH and a 10:1 (v/v) ratio of the respective proenzyme and the APMA solution (MMP:APMA) was incubated for 3 h at 37 °C. The activity was confirmed using the MMP-8 detection kit (QuickZyme Biosciences, Leiden, the Netherlands). A stock solution (90 µg/mL) of the activated MMP was prepared (used for cleavage studies on the PCL or the fully assembled microparticle-PCL-tastant setup (sensor), in MMP-8 buffer (200 mM NaCl, 50 mM Tris-HCl, 5 mM CaCl2, 1 µM ZnCl2, 0.05% Brij 35 at pH 6.8–7.0). All MMP experiments are described in detail in the Supplementary Methods. […]
in water ( v/v)) and eluent B (0.1 % TFA in 2:3 water-acetonitrile (v/v)) and a gradient from 33 to 80% elu ent B within 30 minutes. UV absorption was r ead at λ = 280 nm or 220 nm. After freezing the samples at -80 °C, fr eeze- drying was performed on a Christ Alpha 1 -4 de vi ce (Martin Christ Gefriertrocknungs anlagen, Osterode am Harz, G e r ma n y) at a desublimers ’ te mperature of - 60 ° C, pressure of 1.030 mbar and processing temperature of 19 °C.
Pro-MMPs (e. g. MMP -8, MMP -1 or MMP-9; adapted to 0.1 mg/mL and > 100.0 mU/mg based on manufacturer information and when appropriate) were activated with APMA 8. For that, a 10 mM stock solution of APMA in 0.1 M NaOH was freshly prepared and a 10:1 (v/v) ratio of the r especti ve proenzyme and APMA solution (MMP:APMA) was incubated for 3 h at 37 °C. The activity was conf ir med using the MMP-8 detection kit (Q uic kZ ym e® Biosciences, Leiden, Netherlands). A stock solution (90 µg/mL) of the activated MMP was prepared (used for cleavage studies on the pr ot eas e-cleavable linker (PCL; e.g. Figure 2) or the fully assemb led microparticle -PCL- t ast ant setup (sensor; e.g. Figure 3) , in MMP -8 buffer (200 mM NaCl, 50 mM Tris-H Cl, 5 mM C aC l2, 1 µM ZnCl2, 0.05 % Brij35 at pH 6.8- 7.0). A ll MMP -8 exp eriments wer e performed as follo ws. 25 µg of the sensor ( see chap ter : Peptide-coupling to beads (Sensor)) in 100 µL MMP-buffer or 1 mg of FP LC -purified and lyophilized PCL as described dissolved 2 mL M MP -buffer resulting in a final concentration of 0.5 mg/ mL substrate was used. […]
Figure 2A , 3, 4B ). […]
(sensor) in co mpar ison to negative controls (the negative controls for the PCL an d sensor exper i men ts were b y incubation without MMP under otherwise identical conditions). The relative d ecreas e of the PCL’s ma in peak was char act er ized by HPLC (PCL) or of the sensor’s fluorescence b y FACS (sensor) in comparison to control. […]

Molecule: CC[C@H](C)[C@H](N)C(=O)N[C@@H](C)C(=O)NCC(=O)N[C@@H](CCC(N)=O)C(=O)N[C@@H](CCCCNC(=O)c1cccc(C[N+](CC)(CC)CC(=O)Nc2c(C)cccc2C)c1)C(N)=O [ID #5a] (H-IAGQK(X1)-NH2)
cleavage of the peptide denatonium fragment by aminopeptidase ([1]; 870 ng/mL AP, within 250 min, 0.5 mg/mL substrate, AP buffer pH 7.0, 37 °C, HPLC, n = 5): 80%

Molecule: A( N3)-GPQGIA GQ-K-De [ID #5, second-generation PCL denatonium conjugate]
effect of additional AP incubation after complete MMP-8 cleavage ([1]; AP 3.1 nM (0.87 µg/mL), 30 min, 37 °C, after 22 h with 1800 ng/mL MMP-8, LC-MS): emerging peaks

Molecule: Cf-GPQGYAGQ-A( N3)-Q
not cleaved (MMP-8 [5]): not cleaved by MMP-8 up to 12 h

Molecule: Cf-GPQGYAGQ-A( N3)-Q [ID #4, control PCL, exchange I5Y]
cleavage by MMP-8 (MMP-8 [6]): not cleaved

Molecule: De-GPQG
not cleaved [2]: no difference after additional AP incubation for 30 minutes

Next, values leading:

fragment found [2]: denatonium coupled lysin | cleaved bond (MMP-8 [3]): G-I | cleaved bond (MMP-8 [4]): G-I
Molecule: A( N3)-GPQGIA GQ-K-De

cleaved bond (MMP-8 [3]): G-I
Molecule: Cf-GP QGIA GQ-A( N3)-Q

not cleaved (MMP-8 [5]): not cleaved by MMP-8 up to 12 h
Molecule: Cf-GPLGI AGQ-A( N3)-Q

cleavage by MMP-8 (MMP-8 [6]): not cleaved
Molecule: Cf-GPLGI AGQ-A( N3)-Q [ID #3, control PCL, exchange Q3L]
